Experimental data taken from ChEMBL document CHEMBL5331132, “Expanding the Chemistry of Dihaloacetamides as Tunable Electrophiles for Reversible Covalent Targeting of Cysteines” (J Med Chem, 2023).
Each block holds one compound with its values, some of them ahead of it. Active and inactive are the calls of the source. No cut-off for these calls is given here.

How the values were obtained:
[1] = Glutathione reactivity in potassium phosphate buffer at pH 7.2 assessed as half life at 1 mM by UHPLC analysis; format: physicochemical
[2] = test system: GTPase KRas (Homo sapiens), P01116 [G12C]; assay: Inhibition of KRAS G12C mutant in human NCI-H358 cells assessed as reduction in ERK1/2 phosphorylation at T185/Y187 residues upto 10 uM incubated for 4 hrs by Western blot analysis; format: cell-based
NCI-H358 = assay: Antiproliferative activity against human NCI-H358 cells harboring KRAS p.G12C mutant assessed as inhibition of cell growth incubated for 72 hrs by cell count reagent SF based assay; format: functional; details: NCI-H358, 72 h
MIA PaCa-2 = assay: Antiproliferative activity against human MIA PaCa-2 cells assessed as inhibition of cell growth incubated for 72 hrs by cell count reagent SF based assay; format: functional; details: MIA PaCa-2, 72 h
[3] = Metabolic stability in human liver microsomes assessed as clearance at 1 uM incubated for 30 mins by LC-MS/MS analysis; format: ADME, Microsome; details: read-out: CLH
[4] = test system: GTPase KRas (Homo sapiens), P01116 [G12C]; assay: Covalent binding affinity to recombinant human KRAS G12C mutant (1 to 169 residues) expressed in Escherichia coli BL21 (DE3) gold assessed as protein labelling at 1 uM incubated for 2 hrs by In-gel fluorescence analysis
[5] = Antiproliferative activity against human gefitinib resistant NCI-H1975 cells harboring EGFR L858R/T790M double mutant assessed as inhibition of cell proliferation incubated for 72 hrs by cell count reagent SF based assay; format: functional
[6] = target: Epidermal growth factor receptor (Homo sapiens) (UniProt P00533); assay: Inhibition of EGFR autophosphorylation in human NCI-H1975 cells assessed as reduction in ERK1/2 phosphorylation at T185/Y187 residue at 0.01 to 1 uM incubated for 4 hrs by Western blot analysis; format: cell-based; details: dose 0.01-1 µM
[7] = target: Epidermal growth factor receptor (Homo sapiens) (UniProt P00533); assay: Inhibition of EGFR autophosphorylation at Y1068 residue in human NCI-H1975 cells at 0.01 to 1 uM incubated for 4 hrs by Western blot analysis; format: cell-based; details: dose 0.01-1 µM
[8] = test system: GTPase KRas (Homo sapiens), P01116 [G12C]; assay: Inhibition of KRAS G12C mutant in human MIA PaCa-2 cells assessed as reduction in ERK1/2 phosphorylation at T185/Y187 residues at 0.5 uM incubated for 0.5 to 4 hrs by Western blot analysis; format: cell-based; details: time 0.5-4 hrs
[9] = test system: GTPase KRas (Homo sapiens), P01116 [G12C]; assay: Inhibition of KRAS G12C mutant in human NCI-H358 cells assessed as reduction in ERK1/2 phosphorylation at T185/Y187 residues at 0.5 uM incubated for 0.5 to 4 hrs by Western blot analysis; format: cell-based; details: time 0.5-4 hrs
[10] = test system: GTPase KRas (Homo sapiens), P01116 [G12C]; assay: Inhibition of KRAS G12C mutant in human MIA PaCa-2 cells assessed as reduction in ERK1/2 phosphorylation at T185/Y187 residues at 0.001 to 1 uM incubated for 4 hrs by Western blot analysis; format: cell-based; details: dose 0.001-1 µM
[11] = test system: GTPase KRas (Homo sapiens), P01116 [G12C]; assay: Covalent inhibition of KRAS G12C mutant in human NCI-H358 cells assessed as reduction in protein labelling by probe at 1 uM preincubated for 3 hrs and further incubated with 2-((S)-4-(7-(8-chloronaphthalen-1-yl)-2-(((S)-1-(pent-4-yn-1-yl)pyrrolidin-2-yl)methoxy)-5,6,7,8-tetrahydropyrido[3,4-d]pyrimi …; format: cell-based; details: time 4.0 hrs
[12] = test system: GTPase KRas (Homo sapiens), P01116 [G12C]; assay: Irreversible inhibition of KRAS G12C mutant in human NCI-H358 cells assessed as reduction in ERK1/2 phosphorylation at T185/Y187 residues at 0.001 to 1 uM incubated for 4 hrs followed by washout and further incubated with fresh medium for 4 hrs by Western blot analysis; format: cell-based; details: dose 0.001-1 µM
[13] = test system: GTPase KRas (Homo sapiens), P01116 [G12C]; assay: Inhibition of KRAS G12C mutant in human NCI-H358 cells assessed as reduction in ERK1/2 phosphorylation at T185/Y187 residues at 0.001 to 1 uM incubated for 4 hrs by Western blot analysis; format: cell-based; details: dose 0.001-1 µM
[14] = test system: GTPase KRas (Homo sapiens), P01116 [G12C]; assay: Binding affinity to KRAS G12C mutant in human NCI-H358 cells assessed as protein labelling at 1 uM incubated for 1 hrs by In-gel fluorescence analysis; format: cell-based
[15] = test system: GTPase KRas (Homo sapiens), P01116 [G12C]; assay: Inhibition of KRAS G12C mutant in human NCI-H358 cells assessed as reduction in ERK1/2 phosphorylation at T185/Y187 residues at 0.1 uM incubated for 4 hrs by Western blot analysis relative to control; format: cell-based
[16] = test system: GTPase KRas (Homo sapiens), P01116 [G12C]; assay: Inhibition of KRAS G12C mutant in human NCI-H358 cells assessed as reduction in ERK1/2 phosphorylation at T185/Y187 residues at 1 uM incubated for 4 hrs by Western blot analysis; format: cell-based

Structure (SMILES): C#CCOCCOCCOc1cccc(N2CCN(C(=O)CF)CC2)c1
- half-life at 1000 µM [1]: > 167 h

- inhibition [2]: inactive
- IC50 (NCI-H358): > 10000 nM
Structure (SMILES): CC(=O)N1CCN(c2nc(OC[C@@H]3CCCN3C)nc3c2CCN(c2cccc4cccc(Cl)c24)C3)C[C@@H]1CC#N (racemic)

- IC50 (MIA PaCa-2): 3.92 nM
- microsomal CLint at 1 µM [3]: 215 µL/min/mg
- IC50 (NCI-H358): 9.2 nM
Structure (SMILES): C=C(F)C(=O)N1CCN(c2nc(OC[C@@H]3CCCN3C)nc3c2CCN(c2cccc4cccc(Cl)c24)C3)C[C@@H]1CC#N [ADAGRASIB]

- half-life at 1000 µM [1]: 129 h
Structure (SMILES): C#CCOCCOCCOc1cccc(N2CCN(C(=O)C(F)F)CC2)c1

- IC50 (NCI-H358): 1390 nM
Structure (SMILES): CN1CCC[C@H]1COc1nc2c(c(N3CCN(C(=O)CCl)[C@@H](CC#N)C3)n1)CCN(c1cccc3cccc(Cl)c13)C2

- Activity [4]: Active
- IC50 (NCI-H358): 365 nM
Structure (SMILES): C#CCCCN1CCC[C@H]1COc1nc2c(c(N3CCN(C(=O)[C@@H](F)Cl)[C@@H](CC#N)C3)n1)CCN(c1cccc3cccc(Cl)c13)C2

- inhibition [6]: Active
- inhibition [7]: Active
Structure (SMILES): O=C(Nc1cc2c(Nc3ccc(F)c(Cl)c3)ncnc2cc1OCCCN1CCOCC1)[C@H]1CCCN1C(=O)C(Cl)Cl
- IC50 [5]: 490 nM

- inhibition [8]: Active
- inhibition [9]: Active
- inhibition [10]: Active
- inhibition [11]: Active
- IC50 (MIA PaCa-2): 5.68 nM
- microsomal CLint at 1 µM [3]: 110 µL/min/mg
- inhibition [12]: Active
- IC50 (NCI-H358): 10 nM
- inhibition [13]: Active
Structure (SMILES): CN1CCC[C@H]1COc1nc2c(c(N3CCN(C(=O)C(Cl)Cl)[C@@H](CC#N)C3)n1)CCN(c1cccc3ccc(F)c(Cl)c13)C2

- IC50 (NCI-H358): 162 nM
Structure (SMILES): CN1CCC[C@H]1COc1nc2c(c(N3CCN(C(=O)[C@H](F)Cl)[C@@H](CC#N)C3)n1)CCN(c1cccc3cccc(Cl)c13)C2

- half-life at 1000 µM [1]: > 167 h
Structure (SMILES): C#CCOCCOCCOc1cccc(N2CCN(C(=O)C(C)(F)Br)CC2)c1 (centres undefined)

- half-life at 1000 µM [1]: 33.4 h
Structure (SMILES): C#CCOCCOCCOc1cccc(N2CCN(C(=O)C(F)(F)Br)CC2)c1

- Activity [4]: Active
- IC50 (NCI-H358): 69.7 nM
Structure (SMILES): C#CCCCN1CCC[C@H]1COc1nc2c(c(N3CCN(C(=O)C(Cl)Cl)[C@@H](CC#N)C3)n1)CCN(c1cccc3ccc(F)c(Cl)c13)C2

Structure (SMILES): O=C(Nc1cc2c(Nc3ccc(F)c(Cl)c3)ncnc2cc1OCCCN1CCOCC1)[C@H]1CCCN1C(=O)C(F)Cl (some centres undefined)
- IC50 [5]: 280 nM

- IC50 (NCI-H358): 4800 nM
Structure (SMILES): CN1CCC[C@H]1COc1nc2c(c(N3CCN(C(=O)C(F)Cl)CC3)n1)CCN(c1cccc3cccc(Cl)c13)C2 (some centres undefined)

- Activity [14]: Active
Structure (SMILES): C#CCCCN1CCC[C@H]1COc1nc2c(c(N3CCN(C(=O)C(=C)F)[C@@H](CC#N)C3)n1)CCN(c1cccc3cccc(Cl)c13)C2

- microsomal CLint at 1 µM [3]: 226 µL/min/mg
- inhibition [15]: 100%
- IC50 (NCI-H358): 26.1 nM
- inhibition [16]: Active
Structure (SMILES): CN1CCC[C@H]1COc1nc2c(c(N3CCN(C(=O)C(Cl)Cl)[C@@H](CC#N)C3)n1)CCN(c1cccc3cccc(Cl)c13)C2

- IC50 (NCI-H358): 16.7 nM
Structure (SMILES): CN1CCC[C@H]1COc1nc2c(c(N3CCN(C(=O)C(F)Cl)[C@@H](CC#N)C3)n1)CCN(c1cccc3cccc(Cl)c13)C2 (some centres undefined)

- microsomal CLint at 1 µM [3]: 272 µL/min/mg
- inhibition [15]: 100%
- IC50 (NCI-H358): 12.3 nM
- inhibition [16]: Active
Structure (SMILES): CN1CCC[C@H]1COc1nc2c(c(N3CCN(C(=O)[C@@H](F)Cl)[C@@H](CC#N)C3)n1)CCN(c1cccc3cccc(Cl)c13)C2
